Test results: patent publication US7173062B2, “Method for the improvement of skin wrinkles using retinyl retinoate” (Enprani Co., Ltd., priority 2001, dated 2007)

Legend:
[1] = system: AP-1 (comprising c-Jun protein); experiment: Inhibition of activity of AP-1 protein (Coll-CAT collagenase promoter reporter in HaCaT cells); type: cell-based; settings: for inhibition of the expression of collagenase: cells treated together with RAR α (c-Jun expressed)
Description: AP-1 (comprising c-Jun protein) is a transcription factor inducing the expression of collagenase that is a major cause of skin wrinkles. […] Therefore, studies thereabout were carried out in a similar manner to Experiment 6 as follows.
Experimental procedure: CAT reporter (Coll-CAT) having the collagenase promoter wherein AP-1 response element (TRE) is contained, was transfected into HaCaT cell line, a skin cancer cell line, using a liposome. Then, the degree of inhibition against the activity of AP-1 by retinol derivatives was measured through CAT ELISA in a similar manner to Experiment 6. Further, the effect of retinol derivatives on the transcriptional activity of c-Jun (a protein that induces transfer of cancer, skin aging and inflammation, and consists of homologous isomers or heterologous isomers), a constitutional element of AP-1, was examined by cotransfecting c-Jun or RAR α expression vector.

skin of normal adults = experiment: Test for skin irritation property (closed patch test); type: in vivo, human; settings: closed patch test 24 hours, 20 adults
Description: In order to examine the skin irritation of the compound of formula (1), a patch test for the skin of normal adults was carried out. As the carrier, capryl caprylic triglyceride or the conventional O/W formulation was used, and twenty (20) adults per a group were tested for 24 hours.
The conventional O/W formulation used in the present experiment was prepared according to the following procedure.
Each of the aqueous part of Nos. 1–6 and the oily part of Nos. 7–13 as shown in the following Table 1 was heated to 75–80° C. to be thoroughly dissolved. The oily part was slowly added to the aqueous part and emulsification was performed for 5 minutes at 75–80° C. in a homomixer of 3000rpm. During the emulsification, the mixture was neutralized by the neutralizing agent of No. 14. After the first emulsification, the mixture was cooled, the retinal retaliate and fragrance of Nos. 15–16 were added at 50–55° C., and then the second emulsification was carried out for 3 minutes in a homomixer of 3000rpm. The mixture was cooled again to 27–30° C. to prepare the composition of O/W formulation.
From the experimental results, the irritation indexes were calculated according to the following Equation 1 and the results are represented in the following Table 2. Irritation index={Σ(Test Value×Number of Examinees Corresponding to the Test Value)/(Total Examinees×The Maximum Test Value)×100 Equation 1
Test Value +++: 5, ++: 4, +: 3, +−: 2, −:1
The degree of irritation was determined according to the following standards:
1.9 or less: Minute irritation, 2.0–2.9: Weak irritation, 3.0–3.9: Moderate irritation, 4.0 or more: Strong irritation

RXR α, β, γ = experiment: Activity for RXR (CAT reporter in HaCaT cells); type: cell-based; settings: 1 μM, CAT ELISA
Description: (§1) The effect of the retinol derivatives on the activity of RAR and RXR was examined as follows.
(§2) Experimental procedure: Recombinant gene of DR5-tk-CAT or DR1-tk-CAT comprising DR1 or DR5 as a response element of RAR/RXR, […] promoter, and CAT (chloramphenicol acetyl transferase) was suitably combined with a plasmid DNA that expresses RAR α, β, γ and cotransfected to HaCaT cell line, a skin cancer cell line, with Lipofectamin (GibcoBRL). Then, the cells were incubated in DMEM/10% FBS medium for 1 day, retinol derivative was added in a concentration of 1 μM, and the cells were incubated again for 1 day under the condition of 5% CO2 and 37° C. The cells were washed with phosphate-buffered salione (PBS). Proteins were extracted from each cell, the activity of β-galactosidase was assayed, and the amount of protein was measured to determine the transfection efficiency. Further, the degree of transcription for RAR or RXR was analyzed by CAT ELISA (Roche Molecular Biochemicals, Mannheim, Germany).

RAR α = target: T1, RAR α (Homo sapiens, UniProt P10276); experiment: Activity for RAR α (CAT reporter in HaCaT cells); type: cell-based; settings: 1 μM, CAT ELISA
T1 construct: expressed in transfected cells; host or cells: HaCaT
T1 sequence (P10276 1-462): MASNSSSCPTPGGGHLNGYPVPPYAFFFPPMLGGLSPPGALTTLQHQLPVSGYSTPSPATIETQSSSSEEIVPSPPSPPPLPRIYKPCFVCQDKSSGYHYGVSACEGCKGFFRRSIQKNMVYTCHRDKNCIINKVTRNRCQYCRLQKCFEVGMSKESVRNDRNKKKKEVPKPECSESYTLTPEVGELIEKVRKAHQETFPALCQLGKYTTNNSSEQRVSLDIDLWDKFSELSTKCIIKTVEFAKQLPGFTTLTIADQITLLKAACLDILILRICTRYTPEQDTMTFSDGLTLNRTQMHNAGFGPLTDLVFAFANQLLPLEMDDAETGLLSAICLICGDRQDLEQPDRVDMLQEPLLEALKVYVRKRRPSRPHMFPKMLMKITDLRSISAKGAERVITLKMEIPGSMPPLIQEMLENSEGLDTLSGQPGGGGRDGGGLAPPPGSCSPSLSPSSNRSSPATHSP
Description: as §1, §2

[2] = Photostability test (UV-A 356 nm, 1H NMR); type: physicochemical; design: key: 4 = No qualitative change in ^1H NMR spectrum; 3 = Minute noise but no qualitative change in ^1H NMR spectrum; 2 = Clear noise and some qualitative change in ^1H NMR spectrum; 1 = Qualitative confirmation is difficult in ^1H NMR spectrum; settings: room temperature
Description: In order to examine photostability of the compound of formula (1) compared with retinol, 10 mg of sample was irradiated by UV-A light (wavelength 356 nm) using a Spectroline (Model CM-10; Fluorescence analysis cabinet; Spectronics Corporation, Westbury, N.Y., USA) at certain intervals of time at room temperature.

[3] = Condition of expression: c-Jun + RAR α, HaCaT, Coll-CAT, untreated = 8.6
[4] = Condition of expression: c-Jun, HaCaT, Coll-CAT, untreated = 8.6
[5] = Condition of expression: — (no c-Jun or RAR α vector), HaCaT, Coll-CAT, untreated = 1.0
[6] = 0.075% in C.C.T (capryl caprylic triglyceride)

Structure (SMILES) | Relative inhibition against the expression of collagenase [1, 3] | Relative inhibition against the expression of collagenase [1, 4] | Relative inhibition against the expression of collagenase [1, 5] | inhibition of the expression of collagenase [1] | Irritation Index (skin of normal adults; [6]) | Degree of Irritation (skin of normal adults; 0.075% in C.C.T) | Relative activity against RXR α, β, γ (RXR α, β, γ; Control = 1.0) | Relative activity against RAR α (RAR α; Control = 1.0) | Photostability level ([2]; After 0 hour, 10 mg sample) | Photostability level ([2]; After 2 hours) | Photostability level ([2]; After 12 hours) | Photostability level ([2]; After 24 hours) | Photostability level ([2]; After 48 hours) | also measured
CC1=C(/C=C/C(C)=C/C=C/C(C)=C/COC(=O)/C=C(C)/C=C/C=C(C)/C=C/C2=C(C)CCCC2(C)C)C(C)(C)CCC1 [Compound of formula (1), Retinyl retinoate] | 4.1 | 6.7 | 0.7 | about 52% | 1.3 | Minute irritation (1.9 or less: Minute irritation) | 1.0 | 22.5 | 4 | 4 | 3 | 3 | 3 | effect on / inhibitory activity against c-Jun (AP-1), in words ([1]; HaCaT, Coll-CAT, c-Jun / RAR α cotransfection): lower inhibitory activity against c-Jun than retinoic acid, but higher one than retinol; Degree of Irritation (skin of normal adults; 0.3% in C.C.T): Minute irritation (1.9 or less: Minute irritation); Irritation Index (skin of normal adults; 0.3% in C.C.T): 1.3; Degree of Irritation (skin of normal adults; 0.3% in O/W Formulation): Weak irritation (2.0–2.9: Weak irritation); Irritation Index (skin of normal adults; 0.3% in O/W Formulation): 2.0; Degree of Irritation (skin of normal adults; 0.55% in C.C.T): Minute irritation (1.9 or less: Minute irritation); Irritation Index (skin of normal adults; 0.55% in C.C.T): 1.3; Relative activity against RAR α (RAR α; Control = 1.0, listed as compound of formula (1)): relatively specific and high activity
CC1=C(/C=C/C(C)=C/C=C/C(C)=C/CO)C(C)(C)CCC1 [Retinol] | 5.8 | 7.3 | 0.8 | about 33% | 2.5 | Weak irritation (2.0–2.9: Weak irritation) | 1.0 | 27.5 | 4 | 3 | 2 | 1 | 1 | Relative activity against RXR α, β, γ (RXR α, β, γ; Control = 1.0, listed as retinol): no activity
